# Data as given in US20120059005A1, “COMBINATION OF (A) A PHOSPHOINOSITIDE 3-KINASE INHIBITOR AND (B) AN ANTIDIABETIC COMPOUND FOR USE IN THE TREATMENT OF PROLIFERATIVE DISEASES” (NOVARTIS AG, priority 2009, published 2012).
# Where two headings read alike, the source gives them in different places.
# Experiments:
# [1] = test system: H460 non-small cell lung tumors; experiment: H460 xenograft 12-day tumor growth inhibition assay; type: in vivo, nude mice; conditions: for Mean Tumor Vol. Change / Regression / T/C: Day 12
# Procedure: H460 human non-small cell lung cancer (NSCLC) cells are treated with, different doses of 2-Methyl-2-[4-(3-methyl-2-oxo-8-quinolln-3-yl-2,3-dihydro-imidazo[4, 5-c]quinolin-1-yl)-phenyl]-propionitrile monotosylate salt (also known as COMPOUND A) or 5,-(2,6-di-rnorpholin-4-yl-pyrimidin-4-yl)-4-trifluoromethyl-pyridin-2-ylamine hydrochloride salt (also known as COMPOUND C), a single dose of metformin or both agents in combination, The H460 human NSCLC cells (NCl-H460. ATCC-HTB-177, available from American Type Culture Collection, FRockville, Md. US) are derived from the pleural fluid of a patient with large cell cancer of the lung.
# H460 tumor cells are grown in RPMI 1640 medium containing 100 units/mL penicillin G sodium, 100 μg/mL streptomycin sulfate, and 25 μg/mL gentamicin. The medium is supplemented with 10% fetal bovine serum and 2 mM glutamine. The cells are cultured in tissue culture flasks in a humidified incubator at 37° C., in an atmosphere of 5% CO2 and 95% air. The cells are harvested for injection into 9-week old female nu/nu (nude) mice (Harlan Laboratories, Indianapolis, Ind.) by detaching the monolayers with 2× trypsin and resuspending at 5×10^7 cells/mL in phosphate-buffered saline.
# 0.2 mL of H460 tumor cell suspension (1×10^7 cells) is injected subcutaneously in the right flank of 9-week old female nu/nu (nude) mice (Harlan Laboratories, Indianapolis, Ind.) having a body weight (BW) range of 18.1-26.9 g on Day 1 of the study. Tumors are monitored twice weekly and then daily as their mean volume approaches 100-150 mm^3. Ten days after implantation, the mice are sorted into 11 groups of eight mice having individual tumor sizes of 75-196 mm^3 and a group mean tumor size of 119-122 mm^3. Tumor volume in mm^3 is determined using the formula [(width)^2×(length)]/2, where width width of the tumor in mm and length length of the tumor in mm. Tumor weight can be estimated with the assumption that 1 mg is equivalent to 1 mm^3 of tumor volume.
# (§1) The 11 groups of nude mice are treated as follows. One group of eight mice serves as Controls (C or Control) for all analyses and is administered intraperitoneally (i.p.) 50 mM sodium acetate at pH 4 (Vehicle 1) and then administered by oral gavage (p.o.) a composition comprising 10% N-methylpyrrolidone 90% polyethylene glycol 300 (PEG300) (Vehicle 2). […] Metformin is dissolved in 50 mM sodium acetate at pH 4 for dosing.
# (§2) Compound A is stored at −20° C. Compound C is stored at −20° C. protected from light. Stock solutions (10×) in 100% N-rnethylpyrrolidone (NMP) are prepared every five days, aliquotted, and stored in the dark at room temperature. On each treatment day, stock solution aliquots are diluted with polyethylene glycol (PEG300) to provide the formulated drug (Compound A or Compound C) in 10% NMP: 90% PEG300. Dosing solutions are protected from light, and the formulated drug is administered within 1 hour after preparation.
# For combination therapies, Compound A or Compound C are administered by oral gavage (p.o.) within 30 minutes after the intraperitoneal (i.p.) administration of metformin, except on Day 20 when Compound A or Compound C is given immediately after metformin.
# (§3) Paclitaxel (Natural Pharmaceuticals, Inc., Beverly, Mass., USA) is administered by bolus tail-vein injections (i.v.) once daily on alternate days for five doses. Paclitaxel is dissolved in 50% ethanol and 50% Crernophor® EL to prepare a 10× stock solution stored at room temperature. On each day of dosing, an aliquot of the paclitaxel stock solution is diluted with 5% dextrose in water to yield a dosing solution containing 5% ethanol and 5% Cremophor® EL.
# In all groups, the dosing volume of 10 mL/kg (0.2 mL/20 g mouse) is scaled to the weight of each animal as determined on the day of dosing, except on weekends when the previous BW is carried fontvard.
# [2] = Procedure: 0.2 mL of A549 cell suspension (1×10^7 cells) is injected subcutaneously in the right flank of 9-week old female flu/flu (nude) mice (Harlan Laboratories, Indianapolis, Ind.) having a body weight (BW) range of 19.9-27.3 g on Day 1 of the study, Tumors are callipered in two dimensions to monitor their growth as their mean volume approached 150-220 mm^3, Twenty-two days after implantation, the mice are sorted into 11 groups of eight or nine mice having individual tumor sizes of 108-221 mm^3. Tumor volume in mm^3 is determined using the formula [(width)^2×(length)][…], where width width of the tumor in mm and length=length of the tumor in mm. Tumor weight can be estimated with the assumption that 1 mg is equivalent to 1 mm^3 of tumor volume.
# as §1, with “nine” for “eight”, “(i,p,)” for “(i.p.)”, “N-methylpyrrolidone:” for “N-methylpyrrolidone”, “dosing,” for “dosing.”
# as §2, with “A and” for “A is stored at −20° C.”, “C are” for “C is”, “solutions (10X)” for “solutions (10×)”, “100% N-methylpyrrolidone” for “100% N-rnethylpyrrolidone”
# For combination therapies, Compound A or Compound C are administered by oral gavage (p.o.) within 30 minutes after the intraperitoneal (i.p.) administration of metformin , except on Day 20 when Compound A or Compound C is given immediately after metformin.
# as §3, with “(i v)” for “(i.v.)”, “Cremophor®” for “Crernophor®”, “10X” for “10×”, “Cremophor®EL.” for “Cremophor® EL.”
# In all groups, the dosing volume of 10 mL/kg (0.2 mL/ 20 g mouse) is scaled to the weight of each animal as determined on the day of dosing, except on weekends when the previous BW is carried forward.
# [3] = Paclitaxel 30 mg/kg i.v., 1x on alternate days for 5 doses
# [4] = Compound C 32.7 mg/kg p.o., 1x daily
# [5] = Compound C 54.4 mg/kg p.o., 1x daily until day 10 (stopped due to toxicity)
# [6] = Compound A 41.1 mg/kg p.o., 1x daily
# [7] = Compound A 68.5 mg/kg p.o., 1x daily
# [8] = Metformin 192.3 mg/kg i.p., 1x daily
smiles,measurement,setting,value
"CC(=O)O[C@H]1C(=O)[C@@]2(C)[C@H]([C@H](OC(=O)c3ccccc3)[C@]3(O)C[C@H](OC(=O)[C@H](O)[C@@H](NC(=O)c4ccccc4)c4ccccc4)C(C)=C1C3(C)C)[C@]1(OC(C)=O)CO[C@@H]1C[C@@H]2O [Paclitaxel, reference compound]",Mean Tumor Vol. Change,[1]; [3],227 mm^3
same,Regression,[1]; [3],None
same,T/C,[1]; [3],15%
same,Dead/Total,[2]; [3],0/8
"Nc1cc(C(F)(F)F)c(-c2cc(N3CCOCC3)nc(N3CCOCC3)n2)cn1 [Compound C, 5-(2,6-di-morpholin-4-yl-pyrimidin-4-yl)-4-trifluoromethyl-pyridin-2-ylamine]",Mean Tumor Vol. Change,[1]; [4],880 mm^3
same,Regression,[1]; [4],None
same,T/C,[1]; [4],"59% (ns,"
same,Mean Tumor Vol. Change,[1]; [5],110 mm^3
same,Regression,[1]; [5],None
same,T/C,"[1]; Compound C 54.4 mg/kg p.o., 1x daily until day 10 (stopped due to toxicity), not evaluable (ne)","7% (ne,"
"Cn1c(=O)n(-c2ccc(C(C)(C)C#N)cc2)c2c3cc(-c4cnc5ccccc5c4)ccc3ncc21 [Compound A, 2-Methyl-2-[4-(3-methyl-2-oxo-8-quinolin-3-yl-2,3-dihydro-imidazo[4,5-c]quinolin-1-yl)-phenyl]-propionitrile]",Mean Tumor Vol. Change,[1]; [6],809 mm^3
same,Regression,[1]; [6],None
same,T/C,[1]; [6],"54% (ns,"
same,Mean Tumor Vol. Change,[1]; [7],448 mm^3
same,Regression,[1]; [7],None
same,T/C,[1]; [7],"30% (ns,"
same,Dead/Total,"[2]; female, nu/nu (nude), mouse, in vivo, po, 41.1 mg/kg",0/8
same,Dead/Total,"[2]; female, nu/nu (nude), mouse, in vivo, po, 68.5 mg/kg",0/9
same,Mean Body Weight Change,"[2]; mouse, in vivo, po, 68.5 mg/kg","−0.8%, Day 4"
"CN(C)C(=N)N=C(N)N [Metformin, dimethyldiguanide, reference compound]",Mean Tumor Vol. Change,[1]; [8],1516 mm^3
same,Regression,[1]; [8],None
same,T/C,[1]; [8],"101% (ns,"
same,enhancement of efficacy or tolerability in combination with COMPOUND C,"[1]; metformin in combination with COMPOUND C, overall conclusion",does not appear to enhance efficacy or tolerability
same,impact on tumor growth in the 12-day tumor growth inhibition assay,[1]; metformin monotherapy at 192.3 mg/kg,did not appear to impact tumor growth
same,Dead/Total,"[2]; female, nu/nu (nude), mouse, in vivo",1/9
